What was measured:
[1] = target: T1, B1R receptor of the rat (Rattus norvegicus, UniProt P97583); assay: Functional study on the bradykinin receptor 1 (B1R), FLIPR Ca2+ assay, rB1R cells; format: cell-based; details: CHO-K1, test substance 10 μM, agonist Des-Arg9-bradykinin 100 nM, % inhibition compared with the maximum achievable inhibition, read-out: B1R Antagonism, rat [10 μM] % Inhibition
T1 construct: host or cells: CHO K1 cells (Chinese hamster ovary), stably transfected
T1 sequence (P97583 1-337): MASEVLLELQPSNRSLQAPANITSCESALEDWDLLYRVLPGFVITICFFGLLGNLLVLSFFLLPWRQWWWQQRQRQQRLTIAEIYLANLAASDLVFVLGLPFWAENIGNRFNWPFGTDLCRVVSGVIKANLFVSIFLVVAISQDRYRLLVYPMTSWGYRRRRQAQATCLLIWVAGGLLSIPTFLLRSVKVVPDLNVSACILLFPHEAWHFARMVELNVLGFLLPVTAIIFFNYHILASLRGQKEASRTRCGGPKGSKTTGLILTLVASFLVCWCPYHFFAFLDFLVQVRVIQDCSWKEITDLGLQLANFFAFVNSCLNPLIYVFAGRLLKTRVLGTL
In short: (§1)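 CHO K1 cells stably expressing human or rat B1R were loaded with Fluo-4 and read on a FLIPR (ex 488/em 540 nm, peak fluorescence). Test compounds at 10 μM were added first, then after 10 min agonist: Lys-Des-Arg9-bradykinin 0.5 nM for hB1R, Des-Arg9-bradykinin 100 nM for rB1R; % inhibition versus maximum inhibition.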

[2] = target: T2, human B1R receptor (Homo sapiens, UniProt P46663); assay: Functional study on the bradykinin receptor 1 (B1R), FLIPR Ca2+ assay, hB1R cells; format: cell-based; details: CHO-K1, test substance 10 μM, agonist Lys-Des-Arg9-bradykinin 0.5 nM, % inhibition compared with the maximum achievable inhibition, read-out: B1R Antagonism, human [10 μM] % Inhibition
T2 construct: host or cells: CHO K1 cells (Chinese hamster ovary), stably transfected
T2 sequence (P46663 1-353): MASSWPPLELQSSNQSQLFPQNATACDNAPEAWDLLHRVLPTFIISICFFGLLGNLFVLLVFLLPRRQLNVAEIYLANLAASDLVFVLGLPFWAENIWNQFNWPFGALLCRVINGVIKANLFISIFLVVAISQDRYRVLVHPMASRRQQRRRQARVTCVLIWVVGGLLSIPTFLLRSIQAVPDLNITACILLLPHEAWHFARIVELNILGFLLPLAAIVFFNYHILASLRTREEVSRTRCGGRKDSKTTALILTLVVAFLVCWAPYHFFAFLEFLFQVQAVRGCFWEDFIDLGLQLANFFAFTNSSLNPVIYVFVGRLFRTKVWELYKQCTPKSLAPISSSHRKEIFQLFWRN
In short: as §1

| SMILES | inhibition at 10 µM [1] [%] | inhibition at 10 µM [2] [%] |
| --- | --- | --- |
| COc1cc(C)c(S(=O)(=O)N2CCCC2COCC(=O)N(Cc2ccccc2)c2cc(C)ccn2)c(C)c1 (stereo not drawn) [Example 463, N-benzyl-2-((1-(4-methoxy-2,6-dimethylphenylsulfonyl)pyrrolidin-2-yl)methoxy)-N-(4-methylpyridin-2-yl)acetamide] | 101 | 97.4 |
| COc1cc(C)c(S(=O)(=O)N2CCCC2COCC(=O)N(Cc2ccccc2)c2cccc(C)n2)c(C)c1 (stereo not drawn) [Example 464, N-benzyl-2-((1-(4-methoxy-2,6-dimethylphenylsulfonyl)pyrrolidin-2-yl)methoxy)-N-(6-methylpyridin-2-yl)acetamide] | 102 | 56.6 |
| COc1cc(C)c(S(=O)(=O)N2CCCC2COCC(=O)N2CCN(c3cccc(C(F)(F)F)c3)CC2)c(C)c1 (stereo not drawn) [Example 465, 2-((1-(4-methoxy-2,6-dimethylphenylsulfonyl)pyrrolidin-2-yl)methoxy)-1-(4-(3-(trifluoromethyl)phenyl)piperazin-1-yl)ethanone] | 98.8 | 102 |
| CCN(Cc1ccncc1)C(=O)COCC1CCCN1S(=O)(=O)c1c(C)cc(OC)cc1C (stereo not drawn) [Example 466, N-ethyl-2-((1-(4-methoxy-2,6-dimethylphenylsulfonyl)pyrrolidin-2-yl)methoxy)-N-(pyridin-4-ylmethyl)acetamide] | 99.7 | 92.5 |
| COc1cc(C)c(S(=O)(=O)N2CCCC2COCC(=O)N2CCCN(C)CC2)c(C)c1 (stereo not drawn) [Example 467, 2-((1-(4-methoxy-2,6-dimethylphenylsulfonyl)pyrrolidin-2-yl)methoxy)-1-(4-methyl-1,4-diazepan-1-yl)ethanone] | 101 | 101 |
| COc1cc(C)c(S(=O)(=O)N2CCCC2COCC(=O)N2CCN(c3ccc(C(F)(F)F)cn3)CC2)c(C)c1 (stereo not drawn) [Example 468, 2-((1-(4-methoxy-2,6-dimethylphenylsulfonyl)pyrrolidin-2-yl)methoxy)-1-(4-(5-(trifluoromethyl)pyridin-2-yl)piperazin-1-yl)ethanone] | 101 | 84.5 |
| COc1cc(C)c(S(=O)(=O)N2CCCC2COCC(=O)N2CCN(c3ncc(C(F)(F)F)cc3Cl)CC2)c(C)c1 (stereo not drawn) [Example 469, 1-(4-(3-chloro-5-(trifluoromethyl)pyridin-2-yl)piperazin-1-yl)-2-((1-(4-methoxy-2,6-dimethylphenylsulfonyl)pyrrolidin-2-yl)methoxy)ethanone] | 102 | 92.3 |
| COc1cc(C)c(S(=O)(=O)N2CCCC2COCC(=O)Nc2ccc(CCc3nc4ccccc4n3C)cc2)c(C)c1 (stereo not drawn) [Example 470, 2-((1-(4-methoxy-2,6-dimethylphenylsulfonyl)pyrrolidin-2-yl)methoxy)-N-(4-(2-(1-methyl-1H-benzo[d]imidazol-2-yl)ethyl)phenyl)acetamide] | 98.1 | 92.7 |
| COc1cc(C)c(S(=O)(=O)N2CCCC2COCC(=O)Nc2cccc(CN3CCCCC3)c2)c(C)c1 (stereo not drawn) [Example 471, 2-((1-(4-methoxy-2,6-dimethylphenylsulfonyl)pyrrolidin-2-yl)methoxy)-N-(3-(piperidin-1-ylmethyl)phenyl)acetamide] | 98.8 | 103 |
| COc1cc(C)c(S(=O)(=O)N2CCCC2COCC(=O)NCc2ccccc2N2CCN(C)CC2)c(C)c1 (stereo not drawn) [Example 473, 2-((1-(4-methoxy-2,6-dimethylphenylsulfonyl)pyrrolidin-2-yl)methoxy)-N-(2-(4-methylpiperazin-1-yl)benzyl)acetamide] | 99.5 | 94.6 |
| COc1cc(C)c(S(=O)(=O)N2CCCC2COCC(=O)N2CCC(c3nc4cc(C)ccc4[nH]3)CC2)c(C)c1 (stereo not drawn) [Example 474, 2-((1-(4-methoxy-2,6-dimethylphenylsulfonyl)pyrrolidin-2-yl)methoxy)-1-(4-(5-methyl-1H-benzo[d]imidazol-2-yl)piperidin-1-yl)ethanone] | 96.3 | 96.7 |
| COc1cc(C)c(S(=O)(=O)N2CCCC2COCC(=O)N2CCCCCC2c2ccc(N(C)C)cc2)c(C)c1 (stereo not drawn) [Example 475, 1-(2-(4-(dimethylamino)phenyl)azepan-1-yl)-2-((1-(4-methoxy-2,6-dimethylphenylsulfonyl)pyrrolidin-2-yl)methoxy)ethanone] | 102 | 90.4 |
| COc1cc(C)c(S(=O)(=O)N2CCCC2COCC(=O)N2CC[C@@H](N(C)C)C2)c(C)c1 (stereo partly drawn) [Example 476, 1-((R)-3-(dimethylamino)pyrrolidin-1-yl)-2-((1-(4-methoxy-2,6-dimethylphenylsulfonyl)pyrrolidin-2-yl)methoxy)ethanone] | 100 | 90.1 |
| COc1cc(C)c(S(=O)(=O)N2CCCC2COCC(=O)NC2CCN(Cc3ccccc3)CC2)c(C)c1 (stereo not drawn) [Example 477, N-(1-benzylpiperidin-4-yl)-2-((1-(4-methoxy-2,6-dimethylphenylsulfonyl)pyrrolidin-2-yl)methoxy)acetamide] | 98.8 | 94.5 |
| O=C(COCC1CCCN1S(=O)(=O)c1cc(Cl)sc1Cl)N1CCN(Cc2ccccc2)CC1 (stereo not drawn) [Example 478, 1-(4-benzylpiperazin-1-yl)-2-((1-(2,5-dichlorothiophen-3-ylsulfonyl)pyrrolidin-2-yl)methoxy)ethanone] | 90.2 | 36.2 |
| COc1cc(C)c(S(=O)(=O)N2Cc3ccccc3CC2COCC(=O)N2CCN(c3ccccc3)CC2)c(C)c1C (stereo not drawn) [Example 479, 2-((2-(4-Methoxy-2,3,6-trimethylphenylsulfonyl)-1,2,3,4-tetrahydroisoquinolin-3-yl)methoxy)-1-(4-phenylpiperazin-1-yl)ethanone] | 99.1 | 32.3 |
| O=C(COCC1CCCCN1S(=O)(=O)c1c(Cl)cccc1Cl)N1CCN(Cc2ccccc2)CC1 (stereo not drawn) [Example 480, 1-(4-benzylpiperazin-1-yl)-2-((1-(2,6-dichlorophenylsulfonyl)piperidin-2-yl)methoxy)ethanone] | 103 | 101 |
| O=C(COCC1CCCCN1S(=O)(=O)c1c(Cl)cccc1Cl)N1CCN(c2cccc(C(F)(F)F)c2)CC1 (stereo not drawn) [Example 481, 2-((1-(2,6-dichlorophenylsulfonyl)piperidin-2-yl)methoxy)-1-(4-(3-(trifluoromethyl)phenyl)piperazin-1-yl)ethanone] | 104 | 72.6 |
| CCN(Cc1ccncc1)C(=O)COCC1CCCCN1S(=O)(=O)c1c(Cl)cccc1Cl (stereo not drawn) [Example 482, 2-((1-(2,6-dichlorophenylsulfonyl)piperidin-2-yl)methoxy)-N-ethyl-N-(pyridin-4-ylmethyl)acetamide] | 102 | 97.9 |
| CN1CCCN(C(=O)COCC2CCCCN2S(=O)(=O)c2c(Cl)cccc2Cl)CC1 (stereo not drawn) [Example 483, 2-((1-(2,6-dichlorophenylsulfonyl)piperidin-2-yl)methoxy)-1-(4-methyl-1,4-diazepan-1-yl)ethanone] | 104 | 103 |
| O=C(COCC1CCCCN1S(=O)(=O)c1c(Cl)cccc1Cl)N1CCN(c2ccc(C(F)(F)F)cn2)CC1 (stereo not drawn) [Example 484, 2-((1-(2,6-dichlorophenylsulfonyl)piperidin-2-yl)methoxy)-1-(4-(5-(trifluoromethyl)pyridin-2-yl)piperazin-1-yl)ethanone] | 101 | 75.6 |
| O=C(COCC1CCCCN1S(=O)(=O)c1c(Cl)cccc1Cl)N(Cc1ccccc1)c1ccccn1 (stereo not drawn) [Example 486, N-benzyl-2-((1-(2,6-dichlorophenylsulfonyl)piperidin-2-yl)methoxy)-N-(pyridin-2-yl)acetamide] | 101 | 70.4 |
| Cc1ccc2[nH]c(C3CCN(C(=O)COCC4CCCCN4S(=O)(=O)c4c(Cl)cccc4Cl)CC3)nc2c1 (stereo not drawn) [Example 487, 2-((1-(2,6-dichlorophenylsulfonyl)piperidin-2-yl)methoxy)-1-(4-(5-methyl-1H-benzo[d]imidazol-2-yl)piperidin-1-yl)ethanone] | 99.1 | 101 |
| O=C(COCC1CCCCN1S(=O)(=O)c1c(Cl)cccc1Cl)NC1CCN(Cc2ccccc2)CC1 (stereo not drawn) [Example 488, N-(1-benzylpiperidin-4-yl)-2-((1-(2,6-dichlorophenylsulfonyl)piperidin-2-yl)methoxy)acetamide] | 102 | 101 |

Reference: patent US8435978B2, “Substituted sulfonamide compounds” (Gruenenthal GmbH, priority 2006, dated 2013)
